Read-outs that look alike come from different tables or passages of the source.
How the values were obtained:
[1] = target: T1, Estrogen Receptor ERα (Homo sapiens, UniProt P03372); test: cell-based; settings: for EC10, ERα (M): 10% of maximum effect of E2; for EC10, linear transformed / EC10, linear / EC10: in M; for Efficacy % / EC10 / REPBPA: This Study; for EC10: ERα; for REPBPA: relative estrogenic potency vs BPA; for EC10, ERα: effect; for log(1/EC10) ERα: input of the ToxPi score, values up to 1.00; for REPBPA,ERα (relative effect potency in relation to BPA): EC10,BPA/EC10,BPx; for SR-ScoreERα: SR-Score, sigma k=1, x=5; for Specificity ratio (SRbaseline) SRERα: against baseline cytotoxicity; for Specificity ratio (SRcytotoxicity) SRERα: against experimental cytotoxicity; for Relative effect potency REPERα: relative to BPA
T1 sequence (P03372 311-547 limits assumed): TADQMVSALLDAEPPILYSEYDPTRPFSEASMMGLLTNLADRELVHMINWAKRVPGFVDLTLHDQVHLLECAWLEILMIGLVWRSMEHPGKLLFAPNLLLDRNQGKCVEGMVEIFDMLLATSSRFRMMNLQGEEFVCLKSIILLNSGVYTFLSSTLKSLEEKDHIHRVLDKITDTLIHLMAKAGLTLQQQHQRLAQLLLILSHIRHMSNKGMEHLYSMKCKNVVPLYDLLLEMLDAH
Procedure, shortened: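 ERα-UAS-bla GripTite and PPARγ-UAS-bla β-lactamase reporter cells were seeded and held 24 h at 37 °C, 5% CO₂ before dosing. EC10 values used only concentrations below the IC10 from IncuCyte confluency. Emax% is the log-logistic curve maximum relative to the reference chemical's maximum.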

[2] = target: T1, Estrogen Receptor ERα; test: aCYP oxidation followed by ERα-UAS-bla GripTite assay (TK-Ratio of effect); assay type: cell-based; settings: Table S10; for EC10, after oxidation / EC10, before oxidation: ERα, in M; for EC10, after oxidation: after abiotic CYP catalyst; for TKERα: TKERα-Ratio
Method: Cell culture conditions and bioassay protocols including response detection are provided in Text S2.1–2.4 and Table S3. − Cell viability was determined from cell confluency using an IncuCyte S3 Live-Cell Analysis System (Sartorius AG, Essen, Germany) before and after exposure, except for SH-SY5Y cells (live–dead staining with Nuclear Green LcS1 and propidium iodide, Abcam, UK). For metabolic activation experiments, cell viability was assessed using the ToxBLAzer DualScreen Kit (Thermo Fisher Scientific) to capture the remaining toxicity in ERα-UAS-bla GripTite after treatment with the aCYP catalyst (details in Text S2.4). […]
The TK-Ratio method was used to evaluate the impact of abiotic CYP oxidation on the potency of tested compounds. […]
For experiments with the preceding aCYP activation, ERα cell viability was additionally calculated from the readout of the ToxBLAzer reagent. The ToxBLAzer assay was conducted following the manufacturer's instructions (Thermo Fisher, Waltham, MA, U.S.).13 Fluorescence intensity was recorded at the start of the assay ( Fwavelength(0h)) and after a 2-hour incubation at […]
Cell viability was assessed based on the red fluorescence signal at 665 nm, applying eq. S11 for normalization.
Cell viability = F665nm(2h, sample)-F665nm(0h, average cell-free) (S11) F665nm(2h, average unexposed)-F665nm(0h, average cell-free) […]
the specific endpoint to avoid artifacts from cytotoxicity burst. 15
S2.5: Concentration-response curves (CRCs)
To avoid bias from cytotoxicity burst at higher concentrations, all concentrations exceeding the IC10 for cytotoxicity were excluded in the CRC modeling of effects but otherwise cytotoxicity and effects were fitted with the same model equations (response stands for cytotoxicity or effect). For ERα, AhR, ARE and PPARγ preferably a linear model was fitted to the linear portion of CRC up to maximum 30% effect (eq. S12),16 but in some cases it was necessary to choose a sigmoidal log-concentration-response model, specifically a log-logistic model (eq. S13), to derive effect concentrations and cytotoxicity. For mitochondrial toxicity and neurotoxicity, the […]
are not reporter gene assays. Common practice when using log-logistic models, e.g., the model implemented in tcpl package in R,17, 18 is that the minima and maxima are also fitted and only median effect concentrations AC50 are derived. […]
concentrations (EC10) for both linear and log-sigmoidal CRCs to allow absolute comparisons at the same effect level and for TR and SR -analysis. This was done using the AutomatedBioassayScreening19 published by Braun et al.,20 which also included an algorithm to choose the best model between eq. S12 and eq. S13.
Response (%) = slope × C (S12) […]
logEC =logEC − 1 ∙log (max−min − 100%) (S14)

[3] = Bioassay ERα, dosing range high
[4] = Bioassay ERα, dosing range high, linear model fit
[5] = Bioassay ERα, dosing range high, log-logistic model fit
[6] = read-out: Emax%ERα, maximum efficacy relative to E2
[7] = Bioassay ERα, dosing range all, linear model fit
[8] = Bioassay ERα, dosing range all, log-logistic model fit
[9] = Bioassay ERα, dosing range low, linear model fit
[10] = Bioassay ERα, dosing range low, log-logistic model fit

Row | Structure (SMILES) | EC10, ERα (M) [1] | EC10, linear transformed [1, 3] | EC10, linear [1, 4] | logEC10 [1, 5] | Efficacy % [1] [%] | EC10 [1] | REPBPA [1] | EC10, ERα [1] [µM] | log(1/EC10) ERα [1] | Emax [1, 6] [%] | EC10, after oxidation [2] | EC10, before oxidation [2] | TKERα [2] | EC10, linear transformed ([1]; Bioassay ERα, dosing range all) | EC10, linear [1, 7] | logEC10 [1, 8] | SR-ScoreERα [1] | Specificity ratio (SRbaseline) SRERα [1] | Specificity ratio (SRcytotoxicity) SRERα [1] | Relative effect potency REPERα [1] | further results
1 | O=S(=O)(c1ccc(O)cc1)c1ccc(O)cc1 [BPS, 4,4'-Sulfonyldiphenol] | 1.43 × 10^–6 M | 1.15E-06 | 1.20E-06 | -5.97 | 65.69 | 1.43E-06 | 2.59E-01 | 1.43 | 0.75 | 66 | 1.48E-06 | 1.65E-06 | 1.115 | – | – | – | – | – | – | – | EC10, linear transformed ([1]; ERα bioassay, dosing range low): 1.65E-06; EC10, linear ([1]; ERα bioassay, dosing range low, linear model): 1.43E-06; logEC10 ([1]; ERα bioassay, dosing range low, log-logistic model): -5.76
2 | CC(C)Oc1ccc(S(=O)(=O)c2ccc(O)cc2)cc1 [D8, 4-((4-Isopropoxyphenyl)sulfonyl)phenol] | 1.12 × 10^–5 M | – | – | – | 18.50 | 1.12E-05 | 3.29E-02 | 11.2 | 0.63 | – | – | 1.21E-05 | – | 1.21E-05 | 1.41E-05 | -4.95 | 1.00 | 5.88 | 16.41 | 0.0329 | REPBPA,ERα (relative effect potency in relation to BPA) [1]: 0.033; Emax ([1]; read-out: Emax%ERα): 18%
3 | CCC(C)(c1ccc(O)cc1)c1ccc(O)cc1 [BPB, 4,4'-(Butane-2,2-diyl)diphenol] | 1.35 × 10^–7 M | 5.57E-08 | 8.29E-08 | -7.27 | 23.67 | 1.35E-07 | 2.74E+00 | 0.135 | 0.88 | 24 | 3.59E-07 | 1.07E-07 | 0.2982 | – | – | – | 1.00 | 66.42 | 154.61 | 2.74 | EC10, linear transformed ([1]; Bioassay ERα, dosing range low): 1.07E-07; EC10, linear [1, 9]: 1.35E-07; logEC10 [1, 10]: -6.97; REPBPA,ERα (relative effect potency in relation to BPA) [1]: 3
4 | O=S(=O)(c1ccc(O)cc1)c1ccccc1O [2,4-BPS, 2,4'-Dihydroxydiphenyl sulfone] | 1.98 × 10^–5 M | – | – | – | – | – | – | 19.8 | 0.60 | 19 | – | 3.59E-05 | – | – | – | – | 1.00 | 27.68 | 21.81 | 0.0187 | times less potent than BPS (ERα) [1]: 10; REPBPA,ERα (relative effect potency in relation to BPA) [1]: 0.019; EC10, linear transformed ([1]; ERα bioassay, dosing range all): 3.59E-05; EC10, linear ([1]; ERα bioassay, dosing range all, linear model): 5.15E-05; logEC10 ([1]; ERα bioassay, dosing range all, log-logistic model): -4.70; ERα activation ([1]; at noncytotoxic concentrations): did not activate ERα at noncytotoxic concentrations
5 | O=C(OCc1ccccc1)c1ccc(O)cc1 [BzPB, Benzyl 4-hydroxybenzoate] | 3.02 × 10^–6 M | – | – | – | 53.46 | 3.02E-06 | 1.23E-01 | 3.02 | 0.70 | – | 4.95E-06 | 3.07E-06 | 0.6192 | 3.07E-06 | 1.96E-06 | -5.52 | 1.00 | 5.49 | 13.93 | 0.12 | Emax ([1]; read-out: Emax%ERα): 53%
6 | C=CCOc1ccc(S(=O)(=O)c2ccc(O)cc2)cc1 [BPS-MAE, 4-[[4-(Allyloxy)phenyl]sulfonyl]phenol] | 1.41 × 10^–5 M | – | – | – | – | 1.41E-05 | 2.63E-02 | 14.1 | 0.62 | – | 1.28E-05 | 1.26E-05 | 0.9842 | 1.26E-05 | 1.41E-05 | -4.90 | 1.00 | – | – | – | –
7 | COC(=O)C(c1ccc(O)cc1)c1ccc(O)cc1 [Bz, Methyl bis(4-hydroxyphenyl)acetate] | 1.06 × 10^–6 M | 1.23E-08 | 7.84E-07 | -6.83 | 32.40 | 1.06E-06 | 3.49E-01 | 1.06 | 0.76 | – | 1.36E-06 | 9.90E-07 | 0.7263 | – | – | – | 1.00 | 245.73 | 956.87 | 0.35 | EC10, linear transformed ([1]; Bioassay ERα, dosing range low): 9.90E-07; EC10, linear [1, 9]: 1.06E-06; logEC10 [1, 10]: -6.00; SRcytotoxicity (ERα) ([1]; IC10/EC10): 957; Emax ([1]; read-out: Emax%ERα): 32%

Reference: PMC12392461, “Beyond Estrogenicity: A Comparative Assessment of Bisphenol A and Its Alternatives in In Vitro Assays Questions Safety of Replacements” (Environmental Science & Technology, 2025)
